Results: ChEMBL document CHEMBL5620396, “Phenotypic screening identifies a trisubstituted imidazo[1,2-a]pyridine series that induces differentiation in multiple AML cell lines” (Eur J Med Chem, 2023)
Converted amounts (≈) assume the structure as drawn. The source made the active and inactive calls. No cut-off for these calls is given here.

Tests used:
[1] = AUC (0 to 8 hrs) in CD-1 mouse at 20 mg/kg, po administered as single dose and measured on day 1; format: ADME, organism-based; conditions: in vivo, time 1 day
THP-1 [2] = assay: Induction of differentiation in human THP-1 cells assessed as upregulation of CD11b response incubated for 4 days by flow cytometry analysis; conditions: THP-1, 96 h
OCI-AML-3 [3] = assay: Induction of differentiation in human OCI-AML-3 cells assessed as upregulation of CD11b response incubated for 4 days by flow cytometry analysis; conditions: OCI-AML-3, 96 h
HL-60 [4] = assay: Induction of morphological changes in human HL-60 cells assessed as variations in nuclear segmentation at 10 uM; format: functional, cell-based
HL-60 [5] = assay: Induction of morphological changes in human HL-60 cells assessed as appearance of granules and vacuoles at 10 uM; format: functional, cell-based
[6] = Semi-thermodynamic aqueous solubility of compound; format: physicochemical; conditions: buffer; read-out: Therm_solubility
[7] = Solubility of compound at pH 7; format: physicochemical; conditions: buffer
[8] = Solubility of compound at pH 1; format: physicochemical; conditions: buffer
[9] = Apparent permeability across apical to basolateral side in human Caco-2 cells; format: ADME, cell-based
[10] = Plasma protein binding in mouse; format: ADME, cell-free; conditions: read-out: PPB (converted)
THP-1 [11] = assay: Induction of differentiation in human THP-1 cells assessed as reduction in live cell number at 123 nM incubated for 4 days by acridine orange/DAPI staining based analysis; format: functional; conditions: time 4.0 day
OCI-AML-3 [12] = assay: Induction of differentiation in human OCI-AML-3 cells assessed as reduction in live cell number at 123 nM incubated for 4 days by acridine orange/DAPI staining based analysis; format: functional; conditions: time 4.0 day
KG-1 [13] = assay: Induction of differentiation in human KG-1 cells assessed as reduction in live cell number at 123 nM incubated for 4 days by acridine orange/DAPI staining based analysis; format: functional; conditions: time 4.0 day
Kasumi 1 [14] = assay: Induction of differentiation in human Kasumi 1 cells assessed as reduction in live cell number at 123 nM incubated for 4 days by acridine orange/DAPI staining based analysis; format: functional; conditions: time 4.0 day
HL-60 [15] = assay: Induction of morphological changes in human HL-60 cells assessed as variations in cell size and shape at 10 uM; format: functional, cell-based
HL-60 [16] = assay: Induction of morphological changes in human HL-60 cells assessed as variations in nuclear:cytoplasmic ratio at 10 uM; format: functional, cell-based
THP-1 [17] = assay: Induction of morphological changes in human THP-1 cells assessed as variations in nuclear segmentation at 10 uM; format: functional, cell-based
THP-1 [18] = assay: Induction of morphological changes in human THP-1 cells assessed as variations in nuclear:cytoplasmic ratio at 10 uM; format: functional, cell-based
THP-1 [19] = assay: Induction of morphological changes in human THP-1 cells assessed as appearance of granules and vacuoles at 10 uM; format: functional, cell-based
OCI-AML-3 [20] = assay: Induction of morphological changes in human OCI-AML-3 cells assessed as variations in cell size and shape at 10 uM; format: functional, cell-based
OCI-AML-3 [21] = assay: Induction of morphological changes in human OCI-AML-3 cells assessed as variations in nuclear:cytoplasmic ratio at 10 uM; format: functional, cell-based
OCI-AML-3 [22] = assay: Induction of morphological changes in human OCI-AML-3 cells assessed as appearance of granules and vacuoles at 10 uM; format: functional, cell-based
KG-1 [23] = assay: Induction of morphological changes in human KG-1 cells assessed as variations in cell size and shape at 10 uM; format: functional, cell-based
KG-1 [24] = assay: Induction of morphological changes in human KG-1 cells assessed as variations in nuclear segmentation at 10 uM; format: functional, cell-based
KG-1 [25] = assay: Induction of morphological changes in human KG-1 cells assessed as variations in nuclear:cytoplasmic ratio at 10 uM; format: functional, cell-based
KG-1 [26] = assay: Induction of morphological changes in human KG-1 cells assessed as appearance of granules and vacuoles at 10 uM; format: functional, cell-based
ME-1 [27] = assay: Induction of morphological changes in human ME-1 cells assessed as variations in cell size and shape at 10 uM; format: functional, cell-based
ME-1 [28] = assay: Induction of morphological changes in human ME-1 cells assessed as variations in nuclear segmentation at 10 uM; format: functional, cell-based
ME-1 [29] = assay: Induction of morphological changes in human ME-1 cells assessed as variations in nuclear:cytoplasmic ratio at 10 uM; format: functional, cell-based
ME-1 [30] = assay: Induction of morphological changes in human ME-1 cells assessed as appearance of granules and vacuoles at 10 uM; format: functional, cell-based
Kasumi 1 [31] = assay: Induction of morphological changes in human Kasumi 1 cells assessed as variations in nuclear segmentation at 10 uM; format: functional, cell-based
[32] = Half life in CD-1 mouse at 3 mg/kg, po administered as single dose and measured over 24 hrs; format: ADME, organism-based; conditions: in vivo
[33] = Apparent clearance in CD-1 mouse at 3 mg/kg, po administered as single dose and measured over 24 hrs; format: ADME, organism-based; conditions: in vivo
[34] = Apparent volume of distribution during terminal phase in CD-1 mouse at 3 mg/kg, po administered as single dose and measured over 24 hrs; format: ADME, organism-based; conditions: in vivo, read-out: Vz/F
[35] = AUC (0 to 8 hrs) in CD-1 mouse at 3 mg/kg, po administered as single dose and measured over 24 hrs; format: ADME, organism-based; conditions: in vivo
[36] = Dose normalized AUC (0 to 8 hrs) in CD-1 mouse at 3 mg/kg, po administered as single dose and measured over 24 hrs; format: ADME, organism-based; conditions: in vivo
[37] = Cmax in CD-1 mouse at 3 mg/kg, po administered as single dose and measured over 24 hrs; format: ADME, organism-based; conditions: in vivo
[38] = Dose normalized Cmax in CD-1 mouse at 3 mg/kg, po administered as single dose and measured over 24 hrs; format: ADME, organism-based; conditions: in vivo
[39] = Cmax in CD-1 mouse at 20 mg/kg, po administered as single dose and measured on day 1; format: ADME, organism-based; conditions: in vivo, time 1 day
[40] = Dose normalized Cmax in CD-1 mouse at 20 mg/kg, po administered as single dose and measured on day 1; format: ADME, organism-based; conditions: in vivo, 24 h, time 1 day
[41] = Half life in CD-1 mouse at 20 mg/kg, po administered as repeated dose on day 1 and 4; format: ADME, organism-based; conditions: in vivo, time 4 day
[42] = AUC (0 to 8 hrs) in CD-1 mouse at 20 mg/kg, po administered as repeated dose on day 1 and 4; format: ADME, organism-based; conditions: in vivo, time 4 day
[43] = Cmax in CD-1 mouse at 20 mg/kg, po administered as repeated dose on day 1 and 4; format: ADME, organism-based; conditions: in vivo, time 4 day
[44] = Dose normalized Cmax in CD-1 mouse at 20 mg/kg, po administered as repeated dose on day 1 and 4; format: ADME, organism-based; conditions: in vivo, 96 h, time 4 day
[45] = AUC (0 to 8 hrs) in CD-1 mouse at 1 mg/kg, po administered as single dose and measured on day 1; format: ADME, organism-based; conditions: in vivo, time 1 day
[46] = Cmax in CD-1 mouse at 1 mg/kg, po administered as single dose and measured on day 1; format: ADME, organism-based; conditions: in vivo, time 1 day
[47] = Dose normalized AUC (0 to 8 hrs) in CD-1 mouse at 1 mg/kg, po administered as repeated dose on day 1 and 4; format: ADME, organism-based; conditions: in vivo, 96 h, time 4 day
[48] = Toxicity in CD-1 mouse assessed as adverse effects at 3 mg/kg, po administered twice daily for 7 days; format: organism-based; conditions: in vivo, 168 h, time 7 day

Structure (SMILES): Cc1cc(F)ccc1-c1cc(NS(C)(=O)=O)c2ncc(-c3ccc4c(cnn4C)c3)n2c1
- AUC(0-t) at 24 h [1]: 4460 ng·h/mL
- EC50 (THP-1 [2]): 69 nM
- EC50 (OCI-AML-3 [3]): 25 nM
- Activity (HL-60 [4]): Active
- Activity (HL-60 [5]): Active
- solubility thermodynamic [6]: 21 µM (≈ 9.44 µg/mL)
- solubility [7]: 21 µM (≈ 9.44 µg/mL)
- solubility [8]: > 100 µM
- Papp A→B [9]: 16 ×10⁻⁶ cm/s
- fraction unbound [10]: 0.005
- Activity (THP-1 [11]): Active
- Activity (OCI-AML-3 [12]): Active
- Activity (KG-1 [13]): Active
- Activity (Kasumi 1 [14]): Active
- Activity (HL-60 [15]): Active
- Activity (HL-60 [16]): Active
- Activity (THP-1 [17]): Active
- Activity (THP-1 [18]): Active
- Activity (THP-1 [19]): Active
- Activity (OCI-AML-3 [20]): Active
- Activity (OCI-AML-3 [21]): Active
- Activity (OCI-AML-3 [22]): Active
- Activity (KG-1 [23]): Active
- Activity (KG-1 [24]): Active
- Activity (KG-1 [25]): Active
- Activity (KG-1 [26]): Active
- Activity (ME-1 [27]): Active
- Activity (ME-1 [28]): Active
- Activity (ME-1 [29]): Active
- Activity (ME-1 [30]): Active
- Activity (Kasumi 1 [31]): Active
- half-life [32]: 2.2 h
- CL/F [33]: 16 mL/min/kg
- Vd/F [34]: 3.1 L/kg
- AUC(0-t) at 24 h [35]: 3060 ng·h/mL
- AUC/dose [36]: 1021 ng·h/mL
- Cmax [37]: 360 ng/mL
- Cmax/dose [38]: 120 ng/mL
- Cmax [39]: 677 ng/mL
- Cmax/dose [40]: 34 ng/mL
- half-life [41]: 4.1 h
- AUC(0-t) at 96 h [42]: 4370 ng·h/mL
- Cmax [43]: 784 ng/mL
- Cmax/dose [44]: 39 ng/mL
- AUC(0-t) at 24 h [45]: 845 ng·h/mL
- Cmax [46]: 187 ng/mL
- AUC/dose [47]: 731 ng·h/mL
- Activity [48]: Non-Toxic
